Assay results reported in ChEMBL document CHEMBL1201862, “PubChem BioAssay data set” (2004).
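All cell lines were grown in 96-well plates and treated with compound for 48 hours. Here, GI50 denotes the concentration required for 50% inhibition of growth.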 Activity calls are given as the source filed them. No stated cut-off is given here; in the data, active = GI50 up to about 1.1 µM and inactive = higher.

Legend:
Assay in all cases: NCI tumour cell line growth inhibition, 48 h
HL-60 = test system: HL-60
A549 = test system: A549
SF-539 = test system: SF-539
MDA-N = test system: MDA-N
SK-MEL-2 = test system: SK-MEL-2
SK-MEL-28 = test system: SK-MEL-28
HOP-62 = test system: HOP-62
SNB-19 = test system: SNB-19
IGROV-1 = test system: IGROV-1
SW-620 = test system: SW-620
SK-OV-3 = test system: SK-OV-3
OVCAR-8 = test system: OVCAR-8
CAKI-1 = test system: CAKI-1
UO-31 = test system: UO-31
RPMI-8226 = test system: RPMI-8226
COLO 205 = test system: COLO 205
OVCAR-4 = test system: OVCAR-4
T47D = test system: T47D
SNB-75 = test system: SNB-75
OVCAR-5 = test system: OVCAR-5
HT-29 = test system: HT-29
A498 = test system: A498
KM12 = test system: KM12
MOLT-4 = test system: MOLT-4
SN12C = test system: SN12C
SK-MEL-5 = test system: SK-MEL-5
M14 = test system: M14
PC-3 = test system: PC-3
SR = test system: SR
SF-268 = test system: SF-268
LOX IMVI = test system: LOX IMVI
NCI-H460 = test system: NCI-H460
SF-295 = test system: SF-295
OVCAR-3 = test system: OVCAR-3
NCI/ADR-RES = test system: NCI/ADR-RES
RXF 393 = test system: RXF 393
TK-10 = test system: TK-10
MDA-MB-435 = test system: MDA-MB-435
786-0 = test system: 786-0
UACC-257 = test system: UACC-257
U-251 = test system: U-251
HOP-92 = test system: HOP-92
NCI-H226 = test system: NCI-H226
Hs-578T = test system: Hs-578T
HCC 2998 = test system: HCC 2998
NCI-H23 = test system: NCI-H23
MCF7 = test system: MCF7
ACHN = test system: ACHN
MDA-MB-231 = test system: MDA-MB-231
BT-549 = test system: BT-549
DU-145 = test system: DU-145
NCI-H522 = test system: NCI-H522
UACC-62 = test system: UACC-62
HCT-15 = test system: HCT-15
Malme-3M = test system: Malme-3M

For `COc1cc(C(=O)Oc2ccc3c(c2)OCO3)cc(OC)c1OC`, which GI50 (HL-60) is on record?
The GI50 was > 100 µM (inactive).

What about the GI50 (A549) of the same molecule?
The GI50 was > 100 µM (inactive).

What about the GI50 (SF-539) of the same molecule?
The GI50 was > 100 µM (inactive).

What about the GI50 (MDA-N) of the same molecule?
The GI50 was > 100 µM (inactive).

What about the GI50 (SK-MEL-2) of the same molecule?
The GI50 was > 100 µM (inactive).

And the GI50 (SK-MEL-28)?
Its GI50 is > 100 µM (inactive).

And the GI50 (HOP-62)?
Its GI50 is > 100 µM (inactive).

And the GI50 (SNB-19)?
Its GI50 is > 100 µM (inactive).

And the GI50 (IGROV-1)?
Its GI50 is > 100 µM (inactive).

What about the GI50 (SW-620) of the same molecule?
The GI50 was > 100 µM (inactive).

And the GI50 (SK-OV-3)?
Its GI50 is > 100 µM (inactive).

What about the GI50 (OVCAR-8) of the same molecule?
The GI50 was > 100 µM (inactive).

And the GI50 (CAKI-1)?
The GI50 was > 100 µM (inactive).

What about the GI50 (UO-31) of the same molecule?
The GI50 was > 100 µM (inactive).

And the GI50 (RPMI-8226)?
Its GI50 is > 100 µM (inactive).

And the GI50 (COLO 205)?
The GI50 was > 100 µM (inactive).

What about the GI50 (OVCAR-4) of the same molecule?
Its GI50 is > 100 µM (inactive).

And the GI50 (T47D)?
Its GI50 is > 100 µM (inactive).

And the GI50 (SNB-75)?
The GI50 was > 100 µM (inactive).

What about the GI50 (OVCAR-5) of the same molecule?
Its GI50 is > 100 µM (inactive).

And the GI50 (HT-29)?
The GI50 was > 100 µM (inactive).

And the GI50 (A498)?
The GI50 was > 100 µM (inactive).

And the GI50 (KM12)?
The GI50 was > 100 µM (inactive).

What about the GI50 (MOLT-4) of the same molecule?
The GI50 was > 100 µM (inactive).

What about the GI50 (SN12C) of the same molecule?
The GI50 was > 100 µM (inactive).

What about the GI50 (SK-MEL-5) of the same molecule?
Its GI50 is > 100 µM (inactive).

And the GI50 (M14)?
Its GI50 is > 100 µM (inactive).

And the GI50 (PC-3)?
The GI50 was > 100 µM (inactive).

What about the GI50 (SR) of the same molecule?
The GI50 was > 100 µM (inactive).

And the GI50 (SF-268)?
The GI50 was > 100 µM (inactive).

What about the GI50 (LOX IMVI) of the same molecule?
The GI50 was > 100 µM (inactive).

And the GI50 (NCI-H460)?
The GI50 was > 100 µM (inactive).

And the GI50 (SF-295)?
Its GI50 is > 100 µM (inactive).

And the GI50 (OVCAR-3)?
The GI50 was > 100 µM (inactive).

What about the GI50 (NCI/ADR-RES) of the same molecule?
The GI50 was > 100 µM (inactive).

And the GI50 (RXF 393)?
Its GI50 is > 100 µM (inactive).

And the GI50 (TK-10)?
The GI50 was > 100 µM (inactive).

What about the GI50 (MDA-MB-435) of the same molecule?
Its GI50 is > 100 µM (inactive).

And the GI50 (786-0)?
The GI50 was > 100 µM (inactive).

What about the GI50 (UACC-257) of the same molecule?
Its GI50 is > 100 µM (inactive).

What about the GI50 (U-251) of the same molecule?
The GI50 was > 100 µM (inactive).

And the GI50 (HOP-92)?
The GI50 was > 100 µM (inactive).

What about the GI50 (NCI-H226) of the same molecule?
Its GI50 is > 100 µM (inactive).

What about the GI50 (Hs-578T) of the same molecule?
Its GI50 is > 100 µM (inactive).

What about the GI50 (HCC 2998) of the same molecule?
Its GI50 is > 100 µM (inactive).

And the GI50 (NCI-H23)?
Its GI50 is > 100 µM (inactive).

What about the GI50 (MCF7) of the same molecule?
Its GI50 is > 100 µM (inactive).

And the GI50 (ACHN)?
The GI50 was > 100 µM (inactive).

What about the GI50 (MDA-MB-231) of the same molecule?
Its GI50 is > 100 µM (inactive).

What about the GI50 (BT-549) of the same molecule?
The GI50 was > 100 µM (inactive).

And the GI50 (DU-145)?
Its GI50 is > 100 µM (inactive).

And the GI50 (NCI-H522)?
The GI50 was > 100 µM (inactive).

What about the GI50 (UACC-62) of the same molecule?
Its GI50 is > 100 µM (inactive).

And the GI50 (HCT-15)?
The GI50 was greater than 100 µM.

And the GI50 (Malme-3M)?
Its GI50 is > 100 µM (inactive).
